In DBAASP:
In brackets after ≈: the same amount, converted by molar mass.

Columns and labels:
Test in all cases: ≥ marks a high value that may be exact or a test limit, other limits are often not marked, values filed in µg/mL are converted to µM
[1] = tested on: Staphylococcus aureus NCTC 10788
[2] = tested on: Escherichia coli NCTC 10418
[3] = tested on: Pseudomonas aeruginosa ATCC 27853
[4] = tested on: Candida albicans NCTC 1467
[5] = tested on: Klebsiella pneumoniae ATCC 43816
[6] = tested on: Staphylococcus aureus NCTC 12493
Candida boidinii = tested on: Candida boidinii
Bacillus pumilus = tested on: Bacillus pumilus
Psychrobacter sp. TAD 1 = tested on: Psychrobacter sp. TAD 1
Escherichia coli = tested on: Escherichia coli
[7] = tested on: Staphylococcus aureus ATCC 25923
[8] = tested on: Staphylococcus aureus Xen36
[9] = tested on: Escherichia coli ATCC 25922
Pseudomonas aeruginosa = tested on: Pseudomonas aeruginosa
[10] = tested on: Staphylococcus aureus ATCC BAA-1696
[11] = tested on: Staphylococcus aureus ATCC 29213
Escherichia coli ESBL = tested on: Escherichia coli ESBL
Staphylococcus aureus MR = tested on: Staphylococcus aureus MR
[12] = tested on: Escherichia coli ATCC 35218
[13] = tested on: Escherichia coli ATCC 11229
[14] = tested on: Klebsiella pneumoniae ATCC 13866
[15] = tested on: Staphylococcus aureus ATCC 33591
[16] = tested on: Escherichia coli DSM 1116
[17] = tested on: Bacillus subtilis DSM 347
[18] = tested on: Franconibacter helveticus DSM 18390
[19] = tested on: Staphylococcus xylosus DSM 20267
[20] = tested on: Micrococcus luteus NBRC 3333
[21] = tested on: Aspergillus oryzae NBRC 100959
[22] = tested on: Escherichia coli NBRC 3972
[23] = tested on: Candida viswanathii NBRC 10321
[24] = tested on: Staphylococcus epidermidis NBRC 12993
[25] = tested on: Staphylococcus aureus USA 300
[26] = tested on: Pseudomonas aeruginosa PAO1
[27] = tested on: Staphylococcus aureus NRS 72
[28] = tested on: Escherichia coli DH5alpha
Bacillus subtilis 168 = tested on: Bacillus subtilis 168
[29] = tested on: Mycobacterium tuberculosis H37Ra
[30] = tested on: Escherichia coli NBRC 14237
[31] = tested on: Staphylococcus aureus NBRC 12732
[32] = tested on: Saccharomyces cerevisiae NBRC 10217

SMILES: CC[C@H](C)[C@@H]1NC(=O)[C@H](CC(C)C)NC(=O)[C@@H](NC(=O)[C@H](Cc2ccccc2)NC(=O)[C@H](CC(C)C)NC(=O)[C@H](CCCCN)NC(=O)[C@@H]2CCCN2C(=O)[C@H](CC(C)C)NC(=O)[C@@H](NC(=O)[C@H](CCCCN)NC(=O)[C@@H](NC(=O)[C@@H](NC(=O)[C@H](C)NC(=O)CNC(=O)[C@H](CC(C)C)NC(=O)[C@H](C)NC(=O)[C@@H](N)Cc2ccccc2)C(C)C)[C@@H](C)O)C(C)C)CSSC[C@@H](C(=O)O)NC(=O)[C@H](CCCCN)NC(=O)[C@H](CCCN=C(N)N)NC(=O)[C@H]([C@@H](C)O)NC1=O [FALGAVTKVLPKLFCLITRKC]
- MIC [1]: 4 µM (≈ 9.28 µg/mL)
- MIC [2]: 16 µM (≈ 37.1 µg/mL)
- MIC [3]: 64 µM (≈ 148 µg/mL)
- MIC [4]: 16 µM (≈ 37.1 µg/mL)
- MIC [5]: ≥ 64 µM
- MIC [6]: 8 µM (≈ 18.6 µg/mL)

SMILES: CC[C@H](C)[C@H](NC(=O)CNC(=O)[C@H](CCCN=C(N)N)NC(=O)[C@H](CC(C)C)NC(=O)[C@H](CC(C)C)NC(=O)[C@H](Cc1cnc[nH]1)NC(=O)CNC(=O)[C@H](Cc1ccccc1)NC(=O)[C@@H](N)Cc1ccccc1)C(=O)N[C@H](C(=O)N[C@@H](CO)C(=O)N[C@H](C(=O)NCC(=O)N[C@@H](CCCCN)C(=O)N[C@@H](Cc1cnc[nH]1)C(=O)N[C@H](C(=O)N[C@@H](Cc1cnc[nH]1)C(=O)NCC(=O)N[C@@H](CC(C)C)C(=O)N[C@H](C(=O)N[C@H](C(=O)NCC(=O)O)[C@@H](C)O)[C@@H](C)CC)[C@@H](C)CC)C(C)C)C(C)C [FFGHLLRGIVSVGKHIHGLITG]
- MIC (Candida boidinii): ≥ 50 µM
- MIC (Bacillus pumilus): 10 µM (≈ 23.6 µg/mL)
- MIC (Psychrobacter sp. TAD 1): 2.5 µM (≈ 5.9 µg/mL)
- MIC (Escherichia coli): 25 µM (≈ 59 µg/mL)

SMILES: NCCCC[C@H](NC(=O)CNC(=O)[C@H](CCCCN)NC(=O)[C@H](CC(N)=O)NC(=O)[C@H](CCCCN)NC(=O)[C@H](Cc1cnc[nH]1)NC(=O)[C@H](CCCCN)NC(=O)CN)C(=O)N[C@@H](CCCCN)C(=O)N[C@@H](CC(N)=O)C(=O)NCC(=O)N[C@@H](CCCCN)C(=O)N[C@@H](Cc1cnc[nH]1)C(=O)N[C@@H](CC(N)=O)C(=O)NCC(=O)N[C@@H](Cc1c[nH]c2ccccc12)C(=O)N[C@@H](CCCCN)C(=O)N[C@@H](Cc1c[nH]c2ccccc12)C(=O)N[C@@H](Cc1c[nH]c2ccccc12)C(=O)N[C@@H](Cc1c[nH]c2ccccc12)C(=O)O [GKHKNKGKKNGKHNGWKWWW]
- MIC [7]: 1.6 µM (≈ 4 µg/mL)
- MIC [8]: 3.27 µM (≈ 8.19 µg/mL)
- MIC [9]: 3.19 µM (≈ 8 µg/mL)
- MIC (Pseudomonas aeruginosa): 6.39 µM (≈ 16 µg/mL)
- MIC [10]: 3.27 µM (≈ 8.19 µg/mL)
- MIC [11]: > 3.27 µM
- MIC (Escherichia coli ESBL): 2.26 µM (≈ 5.66 µg/mL)
- MIC (Staphylococcus aureus MR): 1.6 µM (≈ 4 µg/mL)
- MIC [3]: 3.19 µM (≈ 8 µg/mL)

SMILES: CSCC[C@H](NC(=O)[C@H](CC(C)C)NC(=O)CN)C(=O)N[C@@H](CCCCN)C(=O)N[C@@H](CC(C)C)C(=O)N[C@@H](CC(C)C)C(=O)N[C@@H](CCCN=C(N)N)C(=O)N[C@@H](CCC(=O)O)C(=O)N[C@@H](CC(C)C)C(=O)N[C@@H](CC(C)C)C(=O)N[C@@H](Cc1cnc[nH]1)C(=O)N[C@@H](CCSC)C(=O)N[C@@H](Cc1ccccc1)C(=O)N[C@@H](CO)C(=O)N[C@@H](CCCN=C(N)N)C(=O)N[C@H](C(=O)NCC(=O)O)C(C)C [GLMKLLRELLHMFSRVG]
- MIC [7]: 32 µM (≈ 64 µg/mL)
- MIC [12]: ≥ 64 µM
- MIC [13]: ≥ 64 µM
- MIC [11]: 32 µM (≈ 64 µg/mL)
- MIC [14]: 32 µM (≈ 64 µg/mL)
- MIC [3]: 8 µM (≈ 16 µg/mL)
- MIC [15]: 16 µM (≈ 32 µg/mL)

SMILES: CC(C)C[C@H](NC(=O)[C@H](CCCCN)NC(=O)[C@H](CC(C)C)NC(=O)[C@H](CCCCN)NC(=O)[C@H](CC(C)C)NC(=O)[C@H](CCCCN)NC(=O)[C@H](CC(C)C)NC(=O)[C@H](CCCCN)NC(=O)[C@H](CC(C)C)NC(=O)[C@H](CCCCN)NC(=O)[C@H](CC(C)C)NC(=O)[C@H](CCCCN)NC(=O)[C@H](CC(C)C)NC(=O)[C@H](CCCCN)NC(=O)[C@H](CC(C)C)NC(=O)[C@H](CCCCN)NC(=O)[C@H](CC(C)C)NC(=O)[C@@H](N)CCCCN)C(N)=O [KLKLKLKLKLKLKLKLKL]
- MIC [16]: 14.6 µM (≈ 32 µg/mL)
- MIC [17]: 14.6 µM (≈ 32 µg/mL)
- MIC [18]: 7.31 µM (≈ 16 µg/mL)
- MIC [19]: 3.65 µM (≈ 8 µg/mL)

SMILES: CSCC[C@H](NC(=O)[C@H](CCCCN)NC(=O)[C@H](Cc1c[nH]c2ccccc12)NC(=O)[C@H](CCCN=C(N)N)NC(=O)[C@H](CCCCN)NC(=O)[C@H](Cc1ccccc1)NC(=O)[C@H](CC(C)C)NC(=O)[C@H](CCCN=C(N)N)NC(=O)[C@H](CCCCN)NC(=O)[C@@H](NC(=O)[C@H](CCCCN)NC(=O)[C@@H](N)CCCN=C(N)N)C(C)C)C(=O)O [RKVKRLFKRWKM]
- MIC [20]: ≥ 59.7 µM
- MIC [21]: ≥ 59.7 µM
- MIC [22]: ≥ 477 µM
- MIC [23]: ≥ 59.7 µM
- MIC [24]: 29.8 µM (≈ 50 µg/mL)

SMILES: CC(C)C[C@H](NC(=O)[C@H](Cc1cnc[nH]1)NC(=O)[C@H](CO)NC(=O)[C@H](CC(N)=O)NC(=O)[C@H](CCCCN)NC(=O)[C@H](CCCCN)NC(=O)[C@H](Cc1ccccc1)NC(=O)[C@H](Cc1c[nH]c2ccccc12)NC(=O)[C@H](CCCCN)NC(=O)CNC(=O)[C@H](Cc1c[nH]c2ccccc12)NC(=O)[C@@H](N)CCCN=C(N)N)C(=O)N[C@@H](CO)C(N)=O [RWGKWFKKNSHLS]
- MIC [25]: ≥ 80 µM
- MIC [26]: > 80 µM
- MIC [27]: ≥ 80 µM
- MIC [28]: ≥ 80 µM
- MIC (Bacillus subtilis 168): ≥ 80 µM
- MIC [29]: ≥ 80 µM

SMILES: CC[C@H](C)[C@H](NC(=O)[C@H](CCCN=C(N)N)NC(=O)[C@H](CCCN=C(N)N)NC(=O)[C@H](CCCN=C(N)N)NC(=O)[C@H](CO)NC(=O)[C@H](Cc1ccccc1)NC(=O)[C@H](CC(=O)O)NC(=O)[C@H](Cc1ccccc1)NC(=O)[C@H](CCCN=C(N)N)NC(=O)[C@H](CCCN=C(N)N)NC(=O)[C@H](CCCN=C(N)N)NC(=O)[C@@H](N)CO)C(=O)N[C@@H](Cc1ccc(O)cc1)C(=O)N[C@H](C(=O)N[C@@H](C)C(=O)N[C@@H](CCCN=C(N)N)C(=O)N[C@@H](CCCN=C(N)N)C(=O)N[C@@H](CCCN=C(N)N)C(=O)N[C@@H](CO)C(=O)N[C@@H](CC(C)C)C(=O)N[C@@H](C)C(=O)N[C@@H](Cc1ccccc1)C(=O)N[C@@H](C)C(=O)N[C@@H](Cc1cnc[nH]1)C(=O)N[C@@H](CCCN=C(N)N)C(=O)N[C@@H](CCCN=C(N)N)C(=O)N[C@@H](CCCN=C(N)N)C(=O)O)C(C)C [SRRRFDFSRRRIYVARRRSLAFAHRRR]
- MIC [30]: 6.25 µM (≈ 22.2 µg/mL)
- MIC [31]: 6.25 µM (≈ 22.2 µg/mL)
- MIC [32]: 6.25 µM (≈ 22.2 µg/mL)
